In the supplement of paper PMC10307832:

Columns and labels:
Assay in all cases: relative viability (nuclei count vs DMSO), 5 days (fraction); higher = more cells survive
[1] = compound: Cc1ccc(F)c(NC(=O)Nc2ccc(-c3cccc4[nH]nc(N)c34)cc2)c1 [Linifanib] + Cc1nc(NC(=O)N2CCC[C@H]2C(N)=O)sc1-c1ccnc(C(C)(C)C(F)(F)F)c1 [Alpelisib] (partner 2 µM)
Summary of the method: (§1)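 Lung cancer cell lines in 1536-well plates were dosed by pin tool the day after seeding, either with one drug alone or with a fixed anchor-drug dose plus five library-drug doses (not always all listed) in √10 steps. After 5 days, cells were fixed and their nuclei stained in one step (final 0.05% Triton X-100, 1% formaldehyde, 1 ug/ml Hoechst), then counted on 4× images. Relative viability is the nuclei count in treated wells divided by that in vehicle wells. Values are medians of duplicate plates.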

[2] = compound: Cc1ccc(F)c(NC(=O)Nc2ccc(-c3cccc4[nH]nc(N)c34)cc2)c1 [Linifanib] + CS(=O)(=O)N1CCN(Cc2cc3nc(-c4cccc5[nH]ncc45)nc(N4CCOCC4)c3s2)CC1 [Pictilisib] (partner 1 µM)
Summary of the method: as §1

[3] = compound: Cc1ccc(F)c(NC(=O)Nc2ccc(-c3cccc4[nH]nc(N)c34)cc2)c1 [Linifanib] + C[C@]1(O)C[C@@H](c2nc(-c3ccc4ccc(-c5ccccc5)nc4c3)c3c(N)nccn32)C1 [Linsitinib] (partner 1 µM)
Summary of the method: as §1

[4] = compound: Cc1ccc(F)c(NC(=O)Nc2ccc(-c3cccc4[nH]nc(N)c34)cc2)c1 [Linifanib] + C[C@@H](Oc1cc(-c2cnn(C3CCNCC3)c2)cnc1N)c1c(Cl)ccc(F)c1Cl [Crizotinib] (partner 1 µM)
Summary of the method: as §1

[5] = compound: Cc1ccc(F)c(NC(=O)Nc2ccc(-c3cccc4[nH]nc(N)c34)cc2)c1 [Linifanib] + COc1cc2c(Oc3ccc(NC(=O)C4(C(=O)Nc5ccc(F)cc5)CC4)cc3F)ccnc2cc1OCCCN1CCOCC1 [Foretinib] (partner 0.25 µM)
Summary of the method: as §1

[6] = compound: Cc1ccc(F)c(NC(=O)Nc2ccc(-c3cccc4[nH]nc(N)c34)cc2)c1 [Linifanib] + O=C(c1cc(Cc2n[nH]c(=O)c3ccccc23)ccc1F)N1CCN(C(=O)C2CC2)CC1 [Olaparib] (partner 8 µM)
Summary of the method: as §1

[7] = compound: Cc1ccc(F)c(NC(=O)Nc2ccc(-c3cccc4[nH]nc(N)c34)cc2)c1 [Linifanib] + CC1(C)CCC(c2ccc(Cl)cc2)=C(CN2CCN(c3ccc(C(=O)NS(=O)(=O)c4ccc(N[C@H](CCN5CCOCC5)CSc5ccccc5)c(S(=O)(=O)C(F)(F)F)c4)cc3)CC2)C1 [Navitoclax] (partner 0.5 µM)
Summary of the method: as §1

[8] = compound: Cc1ccc(F)c(NC(=O)Nc2ccc(-c3cccc4[nH]nc(N)c34)cc2)c1 [Linifanib] + CC(C)C[C@H](NC(=O)[C@H](Cc1ccccc1)NC(=O)c1cnccn1)B(O)O [Bortezomib] (partner 0.002 µM)
Summary of the method: as §1

[9] = compound: Cc1ccc(F)c(NC(=O)Nc2ccc(-c3cccc4[nH]nc(N)c34)cc2)c1 [Linifanib] + O=C(CCCCCCC(=O)Nc1ccccc1)NO [Vorinostat] (partner 1 µM)
Summary of the method: as §1

[10] = compound: Cc1ccc(F)c(NC(=O)Nc2ccc(-c3cccc4[nH]nc(N)c34)cc2)c1 [Linifanib] + CS(=O)(=O)CCNCc1ccc(-c2ccc3ncnc(Nc4ccc(OCc5cccc(F)c5)c(Cl)c4)c3c2)o1 [Lapatinib] (partner 2 µM)
Summary of the method: as §1

[11] = compound: Cc1ccc(F)c(NC(=O)Nc2ccc(-c3cccc4[nH]nc(N)c34)cc2)c1 [Linifanib]
Summary of the method: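 MetaXpress counted nuclei in 4× images of lung cancer cell lines that had been fixed, permeabilised and Hoechst-stained in one step. Before that, cells in 1536-well plates were kept overnight at 37 °C, pinned with five √10-spaced library-drug doses on vehicle-anchored plates, and cultured 5 days without medium change. Viability takes treated-well nuclei over vehicle-well nuclei and uses the median across plates. Plates were accepted only at control CV below 25% and at least one doubling.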

[12] = compound: Cc1ccc(F)c(NC(=O)Nc2ccc(-c3cccc4[nH]nc(N)c34)cc2)c1 [Linifanib] + Nc1nc2[nH]cc(CCc3ccc(C(=O)N[C@@H](CCC(=O)O)C(=O)O)cc3)c2c(=O)[nH]1 [Pemetrexed] (partner 0.2 µM)
Summary of the method: as §1

[13] = compound: Cc1ccc(F)c(NC(=O)Nc2ccc(-c3cccc4[nH]nc(N)c34)cc2)c1 [Linifanib] + Cc1cc(Nc2cc(N3CCN(C)CC3)nc(Sc3ccc(NC(=O)C4CC4)cc3)n2)n[nH]1 [Tozasertib] (partner 0.1 µM)
Summary of the method: as §1

[14] = compound: Cc1ccc(F)c(NC(=O)Nc2ccc(-c3cccc4[nH]nc(N)c34)cc2)c1 [Linifanib] + COc1cccc2cc(-c3nc([C@H]4CC[C@H](C(=O)O)CC4)n4ncnc(N)c34)[nH]c12 [OSI-027] (partner 0.5 µM)
Summary of the method: as §1

[15] = compound: Cc1ccc(F)c(NC(=O)Nc2ccc(-c3cccc4[nH]nc(N)c34)cc2)c1 [Linifanib] + CC(=O)Nc1cccc(-n2c(=O)n(C3CC3)c(=O)c3c(Nc4ccc(I)cc4F)n(C)c(=O)c(C)c32)c1 [Trametinib] (partner 0.02 µM)
Summary of the method: as §1

[16] = compound: Cc1ccc(F)c(NC(=O)Nc2ccc(-c3cccc4[nH]nc(N)c34)cc2)c1 [Linifanib] + CC(=O)c1c(C)c2cnc(Nc3ccc(N4CCNCC4)cn3)nc2n(C2CCCC2)c1=O [Palbociclib] (partner 0.5 µM)
Summary of the method: as §1

[17] = compound: Cc1ccc(F)c(NC(=O)Nc2ccc(-c3cccc4[nH]nc(N)c34)cc2)c1 [Linifanib] + Nc1ncn([C@H]2C[C@H](O)[C@@H](CO)O2)c(=O)n1 [Decitabine] (partner 2 µM)
Summary of the method: as §1

[18] = compound: Cc1ccc(F)c(NC(=O)Nc2ccc(-c3cccc4[nH]nc(N)c34)cc2)c1 [Linifanib] + NC(=O)Nc1cc(-c2cccc(F)c2)sc1C(=O)N[C@H]1CCCNC1 [AZD7762] (partner 0.2 µM)
Summary of the method: as §1

Cell Line | relative viability ([1]; first compound 0.03162 µM) | relative viability ([1]; first compound 0.1 µM) | relative viability ([1]; first compound 0.3162 µM) | relative viability ([2]; first compound 0.03162 µM) | relative viability ([2]; first compound 0.1 µM) | relative viability ([2]; first compound 0.3162 µM) | relative viability ([3]; first compound 0.03162 µM) | relative viability ([3]; first compound 0.1 µM) | relative viability ([3]; first compound 0.3162 µM) | relative viability ([4]; first compound 0.03162 µM) | relative viability ([4]; first compound 0.3162 µM) | relative viability ([5]; first compound 0.03162 µM) | relative viability ([5]; first compound 0.1 µM) | relative viability ([5]; first compound 0.3162 µM) | relative viability ([6]; first compound 0.03162 µM) | relative viability ([6]; first compound 0.1 µM) | relative viability ([6]; first compound 0.3162 µM) | relative viability ([11]; 0.03162 µM) | relative viability ([11]; 0.1 µM) | relative viability ([11]; 0.3162 µM) | further results
IA-LM | 0.588 | 0.872 | 0.643 | 0.313 | 0.319 | 0.338 | 0.611 | 0.46 | 0.55 | 0.806 | 0.768 | 1.2 | 1.18 | 1.15 | 0.901 | 0.81 | 0.8 | 0.983 | 0.84 | 0.914 | relative viability ([7]; first compound 0.03162 µM): 0.855; relative viability ([7]; first compound 0.1 µM): 0.947; relative viability ([7]; first compound 0.3162 µM): 0.656; relative viability ([8]; first compound 0.03162 µM): 0.752; relative viability ([8]; first compound 0.1 µM): 0.974; relative viability ([8]; first compound 0.3162 µM): 0.846; relative viability ([9]; first compound 0.03162 µM): 0.841; relative viability ([9]; first compound 0.1 µM): 0.906; relative viability ([9]; first compound 0.3162 µM): 1.33; relative viability ([10]; first compound 0.03162 µM): 0.718; relative viability ([10]; first compound 0.3162 µM): 0.713
NCI-H1648 |  |  |  |  |  |  |  |  |  |  |  |  |  |  | 0.847 |  | 1.11 | 0.847 | 0.688 | 1.08 | relative viability ([12]; first compound 0.03162 µM): 0.716; relative viability ([12]; first compound 0.3162 µM): 0.654; relative viability ([13]; first compound 0.03162 µM): 0.433; relative viability ([13]; first compound 0.1 µM): 0.441; relative viability ([13]; first compound 0.3162 µM): 0.422; relative viability ([14]; first compound 0.03162 µM): 0.26; relative viability ([14]; first compound 0.1 µM): 0.229; relative viability ([14]; first compound 0.3162 µM): 0.263; relative viability ([15]; first compound 0.03162 µM): 0.469; relative viability ([15]; first compound 0.3162 µM): 0.461; relative viability ([16]; first compound 0.03162 µM): 0.234; relative viability ([16]; first compound 0.3162 µM): 0.269; relative viability ([17]; first compound 0.03162 µM): 0.5; relative viability ([17]; first compound 0.3162 µM): 0.45; relative viability ([18]; first compound 0.03162 µM): 0.755; relative viability ([18]; first compound 0.3162 µM): 0.509; relative viability ([9]; first compound 0.03162 µM): 0.491; relative viability ([9]; first compound 0.3162 µM): 0.412
EBC-1 | 0.809 | 1.06 | 0.791 | 0.372 | 0.486 | 0.477 | 0.996 | 0.864 | 0.731 | 0.205 | 0.224 | 0.115 | 0.103 | 0.112 | 0.698 | 0.757 | 0.73 | 1.02 | 1.14 | 0.969 | relative viability ([4]; first compound 0.1 µM): 0.208; relative viability ([7]; first compound 0.03162 µM): 0.472; relative viability ([7]; first compound 0.1 µM): 0.412; relative viability ([7]; first compound 0.3162 µM): 0.387; relative viability ([8]; first compound 0.03162 µM): 0.551; relative viability ([8]; first compound 0.1 µM): 0.628; relative viability ([8]; first compound 0.3162 µM): 0.574; relative viability ([10]; first compound 0.03162 µM): 0.207; relative viability ([10]; first compound 0.1 µM): 0.21; relative viability ([10]; first compound 0.3162 µM): 0.214
